Marks after values point to notes of the source that are not given here.
System: ANTIGEN-INDUCED VASCULAR PERMEABILITY CHANGES IN GUINEA-PIG CONJUNCTIVA
Experiment: Inhibition of antigen-induced ocular inflammation (vascular permeability, extravasation of [99mTc]-human serum albumin into the conjunctiva)
Assay type: in vivo
Settings: ovalbumin-sensitized guinea-pigs
Description: Guinea-pigs were actively sensitized to produce IgG1 and IgE antibodies to ovalbumin (2 weeks). Animals were then challenged topically in the eyes (10 µl of 2.5% w/v ovalbumin per eye) followed by intravenous administration of [^99mTc]-human serum albumin (0.25 mCi). Animals were then challenged with antigen either once or twice (2nd challenge 24 hours later). The response was a marked increase in vascular permeability as measured by extravasation of [^99mTc]-labelled human serum albumin into the conjunctiva.
To measure the inhibitory effect of Compounds I-IV, at varying times before antigen challenge, Compounds I-IV were administered either i.v. (1 mg/kg dosage) or topically (0.1% suspensions or_ solutions in 10 µl of 0.5% hydroxy ethylcellulose).

[1] = second challenge (24 hours later), topical 0.1% in 10 µl of 0.5% hydroxy ethylcellulose, pre-treat. time 5 min
[2] = single challenge, topical 0.1% in 10 µl of 0.5% hydroxy ethylcellulose, pre-treat. time 5 min

CCCc1c(OCCCSc2ccc([C@H](O)[C@@H](C)CC(=O)O)cc2)ccc(C(C)=O)c1O (relative stereo) [II, (BS^*,YR^*)-4-(3-(4-acetyl-3-hydroxy-2-propyl-phenoxy)propylthio)-Y-hydroxy-B-methylbenzene-butanoic acid]
% Inhib. [1]: 30.3* %
% Inhib. [2]: 0%

CCCc1c(OCCCS(=O)(=O)c2ccc(C(=O)CCC(=O)O)cc2)ccc(C(C)=O)c1O [Compound I, 4-((3-(4-acetyl-3-hydroxy-2-propylphenoxy)-propyl)sulfonyl)-Y-oxobenzene butanoic acid]
% Inhib. (second challenge (24 hours later), i.v. 1 mg/kg, pre-treat. time 2 min): 42.2** %
% Inhib. [1]: 37.0** %
% Inhib. (single challenge, i.v. 1 mg/kg, pre-treat. time 2 min): 1.5%
% Inhib. [2]: 1.7%

COc1ccc2nc3cc(OC)c(=O)c(Br)c-3sc2c1 [III, 4-bromo-2,7-dimethoay-3H-phenothiazin-3-one]
% Inhib. [1]: 48.0* %
% Inhib. [2]: 38.8*** %

OCc1ccccc1C=CCc1cc2c(cc1O)CCO2 [IV, 2,3-dihydro-6-(3-(2-hydroxymethyl)phenyl-2-propenyl)-5-benzofuranol]
% Inhib. (second challenge (24 hours later), topical 0.1% in 10 µl of 0.5% hydroxy ethylcellulose, pre-treat. time 60 min): 59.5* %
% Inhib. [2]: 28.8** %

— patent EP0247723A2, “Compositions and methods for treating allergic conjuctivitis” (MERCK FROSST CANADA INC., priority 1986, dated 1987)
